# Measurements taken from patent publication US20260174786A1, “A NITROGEN-CONTAINING SPIROCYCLIC COMPOUND, PHARMACEUTICAL COMPOSITION AND USE THEREOF” (Prime Gene Therapeutics Co., Ltd., priority 2022, published 2026).
# Target: T1, hTRPV3 (Homo sapiens, UniProt Q8NET8)
# T1 construct: expressed in transfected cells; host or cells: HEK-293
# T1 sequence (Q8NET8 1-790): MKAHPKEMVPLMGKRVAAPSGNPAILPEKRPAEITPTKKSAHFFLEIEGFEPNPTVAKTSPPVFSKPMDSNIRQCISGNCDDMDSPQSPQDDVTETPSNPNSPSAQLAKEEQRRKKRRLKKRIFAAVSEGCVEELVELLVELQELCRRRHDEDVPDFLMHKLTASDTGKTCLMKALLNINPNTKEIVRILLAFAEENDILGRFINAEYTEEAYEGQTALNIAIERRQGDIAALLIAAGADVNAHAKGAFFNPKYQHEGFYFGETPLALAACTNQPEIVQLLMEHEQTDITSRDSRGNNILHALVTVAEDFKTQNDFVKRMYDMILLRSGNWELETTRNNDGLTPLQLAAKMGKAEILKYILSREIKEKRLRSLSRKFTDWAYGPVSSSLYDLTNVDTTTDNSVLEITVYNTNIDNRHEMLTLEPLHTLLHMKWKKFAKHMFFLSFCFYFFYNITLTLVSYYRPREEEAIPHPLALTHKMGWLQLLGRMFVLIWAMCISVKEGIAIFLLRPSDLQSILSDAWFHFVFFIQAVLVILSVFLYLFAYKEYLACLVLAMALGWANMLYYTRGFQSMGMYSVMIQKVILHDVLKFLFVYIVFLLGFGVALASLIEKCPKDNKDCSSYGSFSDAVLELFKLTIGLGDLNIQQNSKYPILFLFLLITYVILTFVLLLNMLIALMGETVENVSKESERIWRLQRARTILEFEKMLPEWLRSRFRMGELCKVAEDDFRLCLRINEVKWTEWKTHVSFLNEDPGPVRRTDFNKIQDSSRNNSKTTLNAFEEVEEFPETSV
# Assay: Whole cell patch clamp inhibition rate test on HEK-293 cells instantaneously expressing TRPV3
# Type: cell-based
# Conditions: HEK293; hTRPV3, single concentration 0.3 μM
# Method: In this study, HEK-293 cells instantaneously expressing TRPV3 were used for experimental detection.
# The operation steps are as follows:
# The cells were cultured in DMEM medium containing 10% fetal bovine serum at a temperature of 37° C. and a carbon dioxide concentration of 5%.
# Day 1: Cells were inoculated into a 6-well plate with 5×10^5 cells per well.
# Day 2: Transfection was performed using Lipofectamine 3000 transfection reagent, with a plasmid to transfection reagent ratio of 1 μg: 2 μL. The total amount of plasmid used per well was 3 μg. Specifically, two sterile centrifuge tubes were taken and 100 μL Opti-MEM was added to each tube. 6 μL Lipofectamine 3000 was added to one tube and mixed well; and 3 μg plasmid was added to another tube and mixed well, and then 6 μL P3000 was added and mixed well; Subsequently, the diluted plasmid DNA was added to diluted Lipofectamine 3000 and incubated at room temperature for 10-15 min. DNA liposome complex was dropped into the cells, shaked gently and mixed well, and then cultured in an incubator. The liquid was changed after 4 to 6 h.
# Day 3: The cells were digested and seeded into 24 well plates with pre-placed cover slides, with 8×10^3 cells per well.
# Day 4: Patch clamp testing was performed.
# The voltage stimulation protocol for recording TRPV3 current using whole cell patch clamp is as follows: after forming a whole cell seal, a cell membrane voltage clamp was set at −80 mV. Firstly, a membrane potential was recorded at 0 mV, and then a voltage was command to start from −100 mV, to depolarize in the form of Ramp to 100 mV within 100 ms, and finally restore to 0 mV. Data collection was repeated every 5 seconds to observe the inhibitory effect of pharmaceutical on peak current. Experimental data was collected by EPC 10 amplifier (HEKA) and stored in PatchMaster (HEKA) software.
# A microelectrode puller was used to pull the capillary glass tube into a recording electrode. The electrode filled with intracellular fluid was inserted into a microelectrode holder, and a microelectrode manipulator was operated under an inverted microscope to immerse the electrode in extracellular fluid and an electrode resistance (Rpip) was recorded. The electrode was brought into contact with the cell surface and a negative pressure suction was applied to form a high resistance seal (GΩ). At this point, a fast capacitance compensation was performed, and negative pressure was continued to apply in order to break the cell membrane, so that a whole cell recording mode was formed. Then, a slow capacitance compensation was performed and experimental parameters such as film capacitance (Cm) and series resistance (Rs) were recorded. No leakage compensation was provided.
# When the TRPV3 current recorded by the whole cell had stabilized, administration was started. Each pharmaceutical concentration acted for 5 minutes (or until the current stabilized) before detecting the next concentration. A plurality of concentrations was tested for each test compound. A cover glass covered with cells was placed in a recording bath under an inverted microscope. A blank control extracellular solution and a working fluid for the compound to be tested sequentially flowed through the recording bath from low concentration to high concentration using gravity perfusion to act on the cells. Liquid exchange was performed using a peristaltic pump during recording. The current detected by each cell in the extracellular fluid without the compound served as its own control group. Each concentration was independently tested twice using at least two cells. All electrophysiological tests were conducted at room temperature.
row,Compound,inhibition at 0.3 µM [%]
1,"O=C(c1ccc(C(F)(F)F)cn1)N1CCC2(CC(O)c3cc(-c4ccccc4C4CC4)ccc32)C1 (stereo not shown) [Example 50, (5-(2-cyclopropylphenyl)-3-hydroxy-2,3-dihydrospiro[indene-1,3′-pyrrolidine]-1′-yl)(5-(trifluoromethyl)pyridin-2-yl) ketone]",70 to 100
2,"O=C(c1cccc(Cl)n1)N1CCC2(CC(O)c3cc(-c4ccccc4C4CC4)ccc32)C1 (stereo not shown) [Example 51, (6-chloropyridin-2-yl)(5-(2-cyclopropylphenyl)-3-hydroxy-2,3-dihydrospiro[indene-1,3′-pyrrolidine]-1′-yl)ketone]",70 to 100
3,"O=C(c1ncccc1Cl)N1CCC2(CC(O)c3cc(-c4ccccc4C4CC4)ccc32)C1 (stereo not shown) [Example 52, (3-chloropyridin-2-yl)(5-(2-cyclopropylphenyl)-3-hydroxy-2,3-dihydrospiro[indene-1,3′-pyrrolidine]-1′-yl)ketone]",50 to 70
4,"Cc1cccc(C(=O)N2CCC3(CC(O)c4cc(-c5ccccc5C5CC5)ccc43)C2)n1 (stereo not shown) [Example 53, (5-(2-cyclopropylphenyl)-3-hydroxy-2,3-dihydrospiro[indene-1,3′-pyrrolidine]-1′-yl)(6-methylpyridin-2-yl)ketone]",70 to 100
5,"O=C(c1ccc(F)c(Cl)n1)N1CCC2(CC(O)c3cc(-c4ccccc4C4CC4)ccc32)C1 (stereo not shown) [Example 54, (6-chloro-5-fluoropyridin-2-yl)(5-(2-cyclopropylphenyl)-3-hydroxy-2,3-dihydrospiro[indene-1,3′-pyrrolidine]-1′-yl)ketone]",70 to 100
6,"COc1ncnc(OC)c1C(=O)N1CCC2(CC(O)c3cc(-c4ccccc4C4CC4)ccc32)C1 (stereo not shown) [Example 56, (5-(2-cyclopropylphenyl)-3-hydroxy-2,3-dihydrospiro[indene-1,3′-pyrrolidine]-1′-yl)(4,6-dimethoxypyrimidin-5-yl)ketone]",< 25
7,"CC(C)c1ccccc1-c1ccc2c(c1)C(O)CC21CCN(C(=O)c2ccn3nccc3n2)C1 (stereo not shown) [Example 57, (3-hydroxy-5-(2-isopropylphenyl)-2,3-dihydrospiro[indene-1,3′-pyrrolidine]-1′-yl)(pyrazolo[1,5-a]pyrimidin-5-yl) ketone]",50 to 70
8,"CC(C)c1ccccc1-c1ccc2c(c1)C(O)CC21CCN(C(=O)c2ccc(Cl)cn2)C1 (stereo not shown) [Example 58, (5-chloropyridin-2-yl)(3-hydroxy-5-(2-isopropylphenyl)-2,3-dihydrospiro[indene-1,3′-pyrrolidine]-1′-yl)ketone]",70 to 100
9,"CC(C)c1ccccc1-c1ccc2c(c1)C(O)CC21CCN(C(=O)c2ccccn2)C1 (stereo not shown) [Example 60, (3-hydroxy-5-(2-isopropylphenyl)-2,3-dihydrospiro[indene-1,3′-pyrrolidine]-1′-yl)(pyridin-2-yl)ketone]",70 to 100
10,"CC(C)c1ccccc1-c1ccc2c(c1)C(O)CC21CCN(C(=O)c2ccc(F)cc2)C1 (stereo not shown) [Example 61, (4-fluorophenyl)(3-hydroxy-5-(2-isopropylphenyl)-2,3-dihydrospiro[indene-1,3′-pyrrolidine]-1′-yl)ketone]",70 to 100
11,"COc1cnc(C(=O)N2CCC3(CC(O)c4cc(-c5ccccc5C(C)C)ccc43)C2)cn1 (stereo not shown) [Example 63, (3-hydroxy-5-(2-isopropylphenyl)-2,3-dihydrospiro[indene-1,3′-pyrrolidine]-1′-yl)(5-methoxypyrazin-2-yl) ketone]",70 to 100
12,"Cc1cnc(C(=O)N2CCC3(CC(O)c4cc(-c5ccccc5C(C)C)ccc43)C2)cn1 (stereo not shown) [Example 65, (3-hydroxy-5-(2-isopropylphenyl)-2,3-dihydrospiro[indene-1,3′-pyrrolidine]-1′-yl)(5-methylpyrazin-2-yl)ketone]",70 to 100
13,"CC(C)c1ccccc1-c1ccc2c(c1)C(O)CC21CCN(C(=O)c2ncccn2)C1 (stereo not shown) [Example 66, (3-hydroxy-5-(2-isopropylphenyl)-2,3-dihydrospiro[indene-1,3′-pyrrolidine]-1′-yl)(pyrimidin-2-yl)ketone]",25 to 50
14,"CC(C)c1ccccc1-c1ccc2c(c1)C(O)CC21CCN(C(=O)c2ccncn2)C1 (stereo not shown) [Example 67, (3-hydroxy-5-(2-isopropylphenyl)-2,3-dihydrospiro[indene-1,3′-pyrrolidine]-1′-yl)(pyrimidin-4-yl)ketone]",50 to 70
15,"COCc1cnc(C(=O)N2CCC3(CC(O)c4cc(-c5ccccc5C(C)C)ccc43)C2)cn1 (stereo not shown) [Example 69, (3-hydroxy-5-(2-isopropylphenyl)-2,3-dihydrospiro[indene-1,3′-pyrrolidine]-1′-yl)(5-(methoxymethyl)pyrazin-2-yl)ketone]",< 25
16,"CC(C)c1ccccc1-c1ccc2c(c1)C(O)CC21CCN(C(=O)c2cocn2)C1 (stereo not shown) [Example 70, (3-hydroxy-5-(2-isopropylphenyl)-2,3-dihydrospiro[indene-1,3′-pyrrolidine]-1′-yl)(oxazol-4-yl)ketone]",50 to 70
17,"CC(C)c1ccccc1-c1ccc2c(c1)C(O)CC21CCN(C(=O)c2cc[nH]n2)C1 (stereo not shown) [Example 71, (3-hydroxy-5-(2-isopropylphenyl)-2,3-dihydrospiro[indene-1,3′-pyrrolidine]-1′-yl)(1H-pyrazol-3-yl)ketone]",50 to 70
18,"CC(C)c1ccccc1-c1ccc2c(c1)C(O)CC21CCN(C(=O)C2CCN(C)CC2)C1 (stereo not shown) [Example 74, (3-hydroxy-5-(2-isopropylphenyl)-2,3-dihydrospiro[indene-1,3′-pyrrolidine]-1′-yl)(1-methylpiperidin-4-yl) ketone]",< 25
19,"CC(C)c1ccccc1-c1ccc2c(c1)C(O)CC21CCN(C(=O)c2ccc3cn[nH]c3n2)C1 (stereo not shown) [Example 75, (3-hydroxy-5-(2-isopropylphenyl)-2,3-dihydrospiro[indene-1,3′-pyrrolidine]-1′-yl)(1Hpyrazolo[3,4-b]pyridin-6-yl) ketone]",25 to 50
20,"CC(C)c1ccccc1-c1ccc2c(c1)C(O)CC21CCN(C(=O)c2cc3cccn3cn2)C1 (stereo not shown) [Example 76, (3-hydroxy-5-(2-isopropylphenyl)-2,3-dihydrospiro[indene-1,3′-pyrrolidine]-1′-yl)(pyrrolo[1,2-c]pyrimidin-3-yl)ketone]",50 to 70
21,"CCc1ccccc1-c1ccc2c(c1)C(O)CC21CCN(C(=O)c2ccc(F)cn2)C1 (stereo not shown) [Example 80, (5-(2-ethylphenyl)-3-hydroxy-2,3-dihydrospiro[indene-1,3′-pyrrolidine]-1′-yl)(5-fluoropyridin-2-yl) ketone]",70 to 100
22,"O=C(c1ccc(F)cn1)N1CCC2(CC(O)c3cc(-c4ccccc4Cl)ccc32)C1 (stereo not shown) [Example 81, (5-(2-chlorophenyl)-3-hydroxy-2,3-dihydrospiro[indene-1,3′-pyrrolidine]-1′-yl)(5-fluoropyridin-2-yl) ketone]",50 to 70
